Data taken from patent US4289645A (priority 1980, dated 1981).
Where “and” joins values, the source holds several entries; their conditions need not be identical. Identical values can stand only once. Like-named read-outs stand apart in the source and are kept apart here.

Tests used:
[1] = Test for identification of mu-amines compatible with hydroquinone (Example 6); format: physicochemical; parameters: key: An asterisk (*) in a column indicates a positive result; settings: for Step 4: Possible mu-Amine: no precipitate after 3 min stirring; for Step 6: Possible mu-Amine: passes unhindered through 5 micron filter
Source text: The steps of this test are as follows:
Step 1: To a 1 pint glass jar which can be equipped with a cover lid add 80.0 grams of demineralized water and 10.0 grams of the amine to be tested.
Step 2: Stir the contents of the jar for one minute, preferably via a magnetic stirrer. If the amine is a solid, stir until complete dissolution into the water is attained.
Step 4: Stir the contents of the jar for three minutes. If precipitation within the jar occurs, then the amine is not a mu-amine. If no precipitate formation within the jar is evident, the amine may possibly be a mu-amine, so proceed to Step 5.
Step 5: Seal the jar and stir vigorously for seven minutes.
Step 6: After stirring, filter the contents of the jar through a 5 micron filter paper via suction. […] If the contents of the jar pass unhindered through the filter paper, the amine may possibly be a mu-amine and Steps 7 and 8 should be performed.
Step 7: Remove a 1.0 ml aliquot from the filtration flask or receiver (i.e., an aliquot of the former jar contents) with a syringe.
Step 8: Inject the contents of the syringe into the room temperature oxygen scavenger apparatus described in Example 4 above which contains air-saturated, demineralized water and sufficient sodium hydroxide to result in a pH 9-10 range in the reaction flask. If at least 70% of the dissolved oxygen initially present in the air-saturated water is removed within one minute after injection, the amine is definitely a mu-amine. If at least 70% of the dissolved oxygen is not removed within one minute, then the amine is not a mu-amine.
Reported below in Table 7 are the results of tests using the above described procedure for various amines. An asterisk (*) in a column indicates a positive result.

[2] = Oxygen scavenging of hydroquinone/mu-amine, ambient temperature (Example 7); settings: Table 8; 60 seconds, 23-25 °C, 103 ppm hydroquinone + 103 ppm mu-amine
Method: The flask was filled with deionized water which had been stripped of some dissolved oxygen by bubbling nitrogen through a diffuser stone. The pH was adjusted to the desired level with sodium hydroxide. The flask was sealed with a rubber septum, the dissolved oxygen probe and the pH electrode. A magnetic stirrer bar was left in the flask for mixing. The mixer was turned on, and dissolved oxygen and temperature readings were recorded until the dissolved oxygen reached a constant value. Next, the appropriate quantity of additive was injected through the septum using a hypodermic syringe. The initial mole ratio of treatment to dissolved oxygen was determined by weighing feed chemical and measuring the oxygen concentration. […] Dissolved oxygen and temperature readings were then taken at appropriate time intervals.
Using the same apparatus and procedure as described in Example 4 above, oxygen scavenging experiments were performed by injecting 1 ml of stock solution into a glass vessel containing 1070 ml of air-saturated, demineralized water adjusted to the appropriate pH with 7 N sodium hydroxide. The results of these tests are given in Table 8 below in terms of % oxygen removal at 60 seconds. […] The final pH values indicated are for the test water.

[3] = cited from earlier work; for % O2 Removed: Table 1, 78±3 °C, 4±1 psig, about 4 min, feedwater 58-100 ppm, initial O2 1.8-2.3 ppm; for oxygen scavenging in the test water: conclusion from Table 1
[4] = Dissolution and storage stability of hydroquinone/methoxypropylamine solutions (Example 11); format: physicochemical
Method: The following 25 gram solutions were prepared and sealed in glass bottles (components listed in order of addition):
Fifty (50) grams of each of the following solutions were prepared in glass bottles, sealed and placed on a shaker for two hours: […]

[5] = Method: Volumes of mu-amines required to effect dissolution were recorded and converted to weights via density.
[6] = for % O2 Removed: 60 s
Method: (§1) The stock solution concentrations are presented in terms of weight % aqueous. The stock solutions were each 100 grams total. […] The tests were conducted at ambient temperature (23°-25° C.).
The tests were conducted at ambient temperature (23°-25° C.).

[7] = cited from earlier work
[8] = tested on: rats; settings: conclusion from Table 4; cited from earlier work
[9] = cited from earlier work; for % O2 Removed, 1 Minute: hydroquinone: pH 8.6, 22.5 °C, 0.94 mole/mole O2
[10] = conclusion from Table 6; cited from earlier work
[11] = hydroquinone alone in water; cited from earlier work
[12] = Thermal stability of amines (description); format: physicochemical; settings: of the amines tested
[13] = Oxygen scavenging of hydroquinone/mu-amine in hot water flow system (Example 8); settings: Table 10; 6.7 ppm hydroquinone + 6.7 ppm mu-amine, 78±1 °C, 3-5 psig, 240±10 s, pH 9.7
Source text: The specific experimental conditions were:
Reaction Time=240±10 seconds
The initial oxygen levels are reported as parts per billion (ppb).

[14] = Oxygen scavenging at various concentrations and weight ratios of hydroquinone and mu-amine (Example 9)
Method: Using the same apparatus and procedure as described in Example 4 above, oxygen scavenging experiments were performed by injecting 1 ml of stock solution into a glass vessel containing 1070 ml of air-saturated, demineralized water adjusted to the appropriate pH with 7 N sodium hydroxide. […] The final pH values indicated are for the test water.
as §1

[15] = high pressures; cited from earlier work
[16] = cited from earlier work; remark: listed apart in the source
[17] = 10 g amine, 10 g hydroquinone, 80 g water
[18] = hydrazine: pH 9.2, 26.5 °C, 10.5 mole/mole O2

CC(O)CNCC(C)O (stereo not shown) [Diisopropanolamine]
Step 4: Possible mu-Amine [1, 17]: * | Step 6: Possible mu-Amine [1]: * | % O2 Removed [2]: 86%

Nc1ccccc1N [o-phenylenediamine]
% O2 Removed [3]: 10% | oxygen scavenging in the test water [3]: ineffective

Oc1ccc(O)cc1 [hydroquinone]
active hydroquinone concentration attainable in stable aqueous solution ([4]; 1 to 1 with methoxypropylamine, sealed storage 12 days): up to 40% | Dissolution time ([5]; 6.3 g hydroquinone in 89.5 g demineralized water, solutions #1, #2, #3): 23 min and 19 min and 21 min | MOPA required to dissolve hydroquinone ([5]; 10.0 g hydroquinone in neat MOPA): 12.5 grams | % O2 Removed [3]: 97% | oxygen scavenging in the test water [3]: at least equivalent to, if not better than, hydrazine | % O2 Removed ([6]; 0 methoxypropylamine, 1.0% hydroquinone): 9% | % O2 Removed ([6]; 0 methoxypropylamine, 3.0% hydroquinone): 17% | % O2 Removed ([6]; 0 methoxypropylamine, 6.0% hydroquinone): 27% | % O2 Removed ([6]; 1.0% methoxypropylamine, 1.0% hydroquinone): 10% | % O2 Removed ([6]; 1.0% methoxypropylamine, 6.0% hydroquinone): 78% | % O2 Removed ([6]; 3.0% methoxypropylamine, 3.0% hydroquinone): 74% | % O2 Removed ([6]; 6.0% methoxypropylamine, 1.0% hydroquinone): 17% | % O2 Removed ([6]; 6.0% methoxypropylamine, 6.0% hydroquinone): 93% | effect of mu-amine addition on oxygen scavenging efficacy ([6]; conclusion from Table 12): increases the oxygen scavenging efficacy | % O2 Removed ([7]; 1.9 ppm actives, pH 8.4, steam load 15, initial O2 8.0 ppb): 88% | % O2 Removed ([7]; 1.9 ppm actives, pH 8.4, steam load 15, initial O2 10.0 ppb): 90% | efficacy in treating boiler feedwater ([7]; conclusion from Tables 2 and 3): efficacious in treating boiler feedwater and compared favorably with hydrazine | toxicity versus hydrazine [8]: significantly less toxic as compared to hydrazine | reactivity at low temperature with oxygen versus hydrazine ([9]; conclusion from Table 5): superiority of hydroquinone, as compared to hydrazine | % O2 Removed, 1 Minute [9, 18]: 29% | thermal stability versus hydrazine [10]: superior thermal stability | aqueous hydroquinone solubility [11]: about 7%

COCCCN [Methoxypropylamine]
Step 4: Possible mu-Amine [1, 17]: * | Step 6: Possible mu-Amine [1]: * | lowest practical MOPA concentration in the mixture ([4]; aqueous 10% hydroquinone): 2% | mu-amine required to effect dissolution ([5]; added to saturated aqueous hydroquinone (10.0 g hydroquinone, 89.5 g water)): 1.7 grams | thermal stability [12]: most thermally stable | % O2 Removed [13]: 99% | % O2 Removed At 60 Seconds ([14]; 1.5% mu-amine, 10.0% hydroquinone (6.67:1)): 96% | % O2 Removed At 60 Seconds ([14]; 2.0% mu-amine, 10.0% hydroquinone (5:1)): 96% | % O2 Removed At 60 Seconds ([14]; 3.0% mu-amine, 10.0% hydroquinone (3.33:1)): 96% | % O2 Removed At 60 Seconds ([14]; 15.0% mu-amine, 15.0% hydroquinone (1:1)): 95% | % O2 Removed At 60 Seconds ([14]; 20.0% mu-amine, 20.0% hydroquinone (1:1)): 98% | % O2 Removed At 60 Seconds ([14]; 30.0% mu-amine, 30.0% hydroquinone (1:1)): 98% | % O2 Removed At 60 Seconds ([14]; 40.0% mu-amine, 40.0% hydroquinone (1:1)): 94% | % O2 Removed At 60 Seconds ([14]; 90.0% mu-amine, 10.0% hydroquinone (1:9)): 94%

Nc1ccc(N)cc1 [p-phenylenediamine]
% O2 Removed [3]: 35% | oxygen scavenging in the test water [3]: ineffective

O=S([O-])[O-].[Na+].[Na+] [sodium sulfite]
decomposition in the boiler [15]: decomposes in the boiler to form sulfur dioxide and hydrogen sulfide

CC(O)CN (stereo not shown) [Monoisopropanolamine]
Step 4: Possible mu-Amine [1, 17]: * | Step 6: Possible mu-Amine [1]: * | % O2 Removed [13]: 98%

NN [hydrazine]
% O2 Removed ([7]; control run 1: 1.6 ppm, pH 8.8, steam load 11, initial O2 13.0 ppb): 69% | % O2 Removed ([7]; control run 2: 1.1 ppm, pH 9.4, steam load 15, initial O2 4.0 ppb): 50% | % O2 Removed ([7]; control run 3: 1.2 ppm, pH 8.6, steam load 15, initial O2 6.0 ppb): 60% | % O2 Removed ([7]; control run 4: 1.0 ppm, pH 8.8, steam load 15, initial O2 5.8 ppb): 55% | % O2 Removed ([7]; control run 5: 0.8 ppm, pH 9.4, steam load 11, initial O2 3.5 ppb): 31% | % O2 Removed ([7]; control run 6: 1.6 ppm, pH 9.6, steam load 14, initial O2 4.0 ppb): 30% | % O2 Removed, 5 Minutes [9, 18]: 2% | % O2 Removed, 1 Minute [9, 18]: 1% | pH of maximum oxygen scavenging efficacy ([16]; in solution, Cohn and Powell 1954): 10.0-10.5 | rate of reaction with oxygen ([16]; low temperatures such as room temperature): very slow

NCCO [Monoethanolamine]
Step 4: Possible mu-Amine [1, 17]: * | Step 6: Possible mu-Amine [1]: * | % O2 Removed [2]: 75%

C1CN2CCN1CC2 [Triethylenediamine, reference compound]
Step 4: Not mu-Amine ([1]; 10 g amine, 10 g hydroquinone, 80 g water, precipitation after 3 min stirring): *
